Experimental data published in patent publication US9029384B2, “Phosphatidylinositol 3-kinase inhibitors” (Gilead Calistoga LLC, priority 2012, dated 2015).
Where two headings read alike, the source gives them in different places.

Tests used:
PI3Kδ = molecular target: T1, PI3Kδ (Homo sapiens, UniProt O00329); assay: Enzymatic activity of PI3K isoforms, TR-FRET assay (PIP3 formation); assay type: biochemical; conditions: read-out: IC50
T1 construct: made in house
Description: Enzymatic Activity of PI3K Isoforms
The TR-FRET assay was used to monitor formation of the product 3,4,5-inositol triphosphate molecule (PIP3) as it competed with fluorescently labeled PIP3 for binding to the GRP-1 pleckstrin homology domain protein. An increase in […] product results in a decrease in TR-FRET signal as the labeled fluorophore is displaced from the GRP-1 protein binding site.
Class I PI3K isoforms were expressed and purified as heterodimeric recombinant proteins. All assay reagents and buffers for the TR-FRET assay were purchased from Millipore. […] After an assay reaction time of 30 minutes at 25° C., reactions were terminated with a final concentration of 10 mM EDTA, 10 nM labeled-PIP3, and 35 nM Europium labeled GRP-1 detector protein before reading TR-FRET on an Envision plate reader (Ex: 340 nm; Em: 615/665 nm; 100 μs delay and 500 μs read window).
Data are normalized based on a positive (1 uM wortmanin) and negative (DMSO) controls. The α, β, δ, and γ IC50 values were calculated from the fit of the dose-response curves to a four-parameter equation. IC50 are reported in units of nM.
IC50 values were obtained for all PI3K isoforms (α, β, δ, and γ), and Table 2 summarizes the IC50 data collected for PI3Kδ in this Example B1.

basophils = assay: Basophil activation in human whole blood (Flow2 CAST kit, CD63 positive cells); assay type: cell-based; conditions: basophils activated with anti-FcεRI mAb or fMLP, geometric mean
Experimental: Effect on basophil activation was measured in human whole blood using the Flow2 CAST® kit (Buhlmann Laboratories AG, Baselstrasse, Switzerland) following the protocol provided by the manufacturer with minor modifications. Human whole blood was collected into K2-EDTA venipuncture tubes. Whole blood samples were treated with either DMSO (0.3% final) or a serial dilution of compounds in DMSO for 60 minutes at 37° C. Basophils were then activated either with anti-FcεRI mAb or with fMLP. To activate basophils using the anti-FcεRI mAb; 50 μl of whole blood was mixed with 110 μl of stimulation buffer (B-BAT-STB) and 20 μl of anti-FcεRI (B-BAT-STCON). To activate basophils with fMLP; 50 μl of whole blood was mixed with 80 μl of stimulation buffer (B-BAT-STB) and 50 μl of fMLP (B-CCR-FMLP). Stimulation buffer was used as a negative control. 20 μl of the staining reagent (combination of anti-human CD63-FITC and anti-human CCR3-PE mAbs) was then added to each tube. […] Subsequently, erythrocytes were lysed and fixed by the addition of 2 ml of lysing solution (B-BAT-LYR) for 10 min at room temperature. Cells were pelleted by centrifugation at 1200 rpm for 10 min at room temperature in a swing-out rotor. Supernatant was aspirated and cell pellet resuspended in 400 μl of wash buffer. Flow cytometric analysis of the basophil activation was performed on a FC500MPL flow cytometer (Beckman Coulter Inc., Fullerton, Calif.). CCR3-staining and side scatter were applied to gate at least 200 basophils that expressed a high density of CCR3. The percent CD63 positive cells within the gated basophil population were determined in different treatment groups and normalized to the vehicle control (0.3% DMSO) with anti-FcεRI mAb of fMLP stimulus as 100%. Final compound concentration was adjusted to correct for dilution effect of added reagents. The EC50 values were calculated from the analysis of the dose-response curves to a four-parameter equation. All EC50 values represent geometric mean values and are reported in units of nM.

[1] = PI3Kδ, TR-FRET, 2×Km ATP, 10 μM PIP2

T1 sequence (O00329 whole entry, canonical isoform): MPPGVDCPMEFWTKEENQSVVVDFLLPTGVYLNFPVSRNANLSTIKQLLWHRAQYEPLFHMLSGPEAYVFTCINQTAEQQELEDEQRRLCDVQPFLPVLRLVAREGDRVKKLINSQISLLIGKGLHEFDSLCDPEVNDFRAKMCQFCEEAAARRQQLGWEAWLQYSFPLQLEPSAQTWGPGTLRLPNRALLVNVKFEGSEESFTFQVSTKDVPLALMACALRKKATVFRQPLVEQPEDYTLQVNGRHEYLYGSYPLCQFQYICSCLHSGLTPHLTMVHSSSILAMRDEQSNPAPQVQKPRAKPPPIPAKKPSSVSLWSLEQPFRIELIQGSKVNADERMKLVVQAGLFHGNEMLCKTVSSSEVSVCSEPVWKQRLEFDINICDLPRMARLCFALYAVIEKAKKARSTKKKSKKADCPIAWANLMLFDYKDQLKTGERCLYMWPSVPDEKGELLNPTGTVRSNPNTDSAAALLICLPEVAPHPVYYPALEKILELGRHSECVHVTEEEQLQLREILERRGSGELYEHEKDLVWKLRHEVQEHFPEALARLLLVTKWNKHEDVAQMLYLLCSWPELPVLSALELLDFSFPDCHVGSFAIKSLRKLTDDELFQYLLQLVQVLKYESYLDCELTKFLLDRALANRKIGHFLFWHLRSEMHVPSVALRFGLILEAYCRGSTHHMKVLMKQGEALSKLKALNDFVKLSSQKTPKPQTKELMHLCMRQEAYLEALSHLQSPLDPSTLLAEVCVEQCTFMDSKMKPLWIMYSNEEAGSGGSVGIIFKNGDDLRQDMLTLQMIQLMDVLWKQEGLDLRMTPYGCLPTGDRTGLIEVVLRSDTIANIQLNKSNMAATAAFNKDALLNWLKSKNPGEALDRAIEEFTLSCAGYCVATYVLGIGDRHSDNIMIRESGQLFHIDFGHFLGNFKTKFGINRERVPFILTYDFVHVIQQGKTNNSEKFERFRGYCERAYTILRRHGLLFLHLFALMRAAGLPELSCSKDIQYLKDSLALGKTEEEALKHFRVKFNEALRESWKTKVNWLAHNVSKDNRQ
T1 sequence (P27986 whole entry partner, canonical isoform): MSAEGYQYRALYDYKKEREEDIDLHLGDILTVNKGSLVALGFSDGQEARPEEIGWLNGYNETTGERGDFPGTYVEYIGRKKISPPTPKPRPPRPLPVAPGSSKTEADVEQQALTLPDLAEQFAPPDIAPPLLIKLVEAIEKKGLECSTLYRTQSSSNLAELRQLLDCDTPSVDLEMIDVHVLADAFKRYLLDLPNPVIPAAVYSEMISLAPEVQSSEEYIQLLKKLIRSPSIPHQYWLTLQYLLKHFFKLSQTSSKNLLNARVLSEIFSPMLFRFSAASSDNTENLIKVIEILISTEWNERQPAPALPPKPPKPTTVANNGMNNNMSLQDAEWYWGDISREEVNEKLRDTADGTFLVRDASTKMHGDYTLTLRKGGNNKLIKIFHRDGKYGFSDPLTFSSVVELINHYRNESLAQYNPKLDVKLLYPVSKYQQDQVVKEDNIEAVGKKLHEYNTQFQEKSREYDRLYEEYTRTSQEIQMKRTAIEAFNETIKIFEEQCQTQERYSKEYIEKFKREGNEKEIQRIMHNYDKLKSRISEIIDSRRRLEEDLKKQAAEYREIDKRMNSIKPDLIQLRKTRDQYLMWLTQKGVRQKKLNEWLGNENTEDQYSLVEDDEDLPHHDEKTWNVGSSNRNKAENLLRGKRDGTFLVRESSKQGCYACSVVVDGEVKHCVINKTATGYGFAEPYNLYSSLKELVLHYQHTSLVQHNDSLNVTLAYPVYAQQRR

| IC50 (PI3Kδ; [1]) [nM] | EC50 (basophils; Homo sapiens) [nM] | EC50 (basophils) [nM] | IC50 (PI3Kδ) [nM] | Structure (SMILES) |
| --- | --- | --- | --- | --- |
| < 1 | 1 to 10 |  |  | Cc1ccc(F)c2nc(C(C)Nc3nc(N)nc(N)c3C#N)n(-c3cccc(C#N)c3)c(=O)c12 (single isomer, unassigned) [Compound 64a] |
| < 1 |  | 1 to 10 |  | Cc1cccc(-n2c(C(C)Nc3nc(N)nc(N)c3C#N)nc3cccc(Cl)c3c2=O)c1C (single isomer, unassigned) [Compound 202a-1] |
| 1 to 10 |  | 1 to 10 |  | COc1ccc(C)c(-n2c(C(C)Nc3nc(N)nc(N)c3C#N)nc3cccc(Cl)c3c2=O)c1 (single isomer, unassigned) [Compound 187a-2] |
| 10 to 50 |  | > 50 |  | Cc1c(C(F)F)cccc1-n1c(C(C)Nc2nc(N)nc(N)c2C#N)nc2cccc(Cl)c2c1=O (single isomer, unassigned) [Compound 189a-1] |
| 1 to 10 | 10 to 50 |  |  | COc1cc(-n2c(C(C)Nc3nc(N)nc(N)c3C#N)nc3cccc(Cl)c3c2=O)ccc1F (single isomer, unassigned) [Compound 186a] |
| 1 to 10 |  | 1 to 10 |  | Cc1ccc(C)c(-n2c(C(C)Nc3nc(N)nc(N)c3C#N)nc3cccc(Cl)c3c2=O)c1 (single isomer, unassigned) [Compound 191a-2] |
| 10 to 50 |  | > 50 |  | Cc1cccc(-n2c(C(C)Nc3nc(N)nc(N)c3C#N)nc3cccc(Cl)c3c2=O)c1C (single isomer, unassigned) [Compound 202a-2] |
| 1 to 10 |  | 10 to 50 |  | COc1ccc(C)c(-n2c(C(C)Nc3nc(N)nc(N)c3C#N)nc3cccc(Cl)c3c2=O)c1 (single isomer, unassigned) [Compound 187a-1] |
| < 1 | > 50 |  |  | Cc1cccc2c(=O)n(-c3cccc(Cl)c3)c(C(C)Nc3nc(N)nc(N)c3C#N)nc12 (single isomer, unassigned) [Compound 6a] |
| 10 to 50 | > 50 |  |  | COc1cc(-n2c(C(C)Nc3nc(N)nc(N)c3C#N)nc3cccc(Cl)c3c2=O)ccc1C (single isomer, unassigned) [Compound 184a] |
| 1 to 10 |  | 10 to 50 |  | Cc1ccc(C)c(-n2c(C(C)Nc3nc(N)nc(N)c3C#N)nc3cccc(Cl)c3c2=O)c1 (single isomer, unassigned) [Compound 191a-1] |
| 1 to 10 | 10 to 50 |  |  | CC(Nc1nc(N)nc(N)c1C#N)c1nc2cccc(Cl)c2c(=O)n1-c1cc(C(F)F)cc(C(F)F)c1 (single isomer, unassigned) [Compound 119a] |
| < 1 | < 1 |  |  | Cc1cccc2nc(C(C)Nc3nc(N)nc(N)c3C#N)n(-c3ccccc3)c(=O)c12 (single isomer, unassigned) [Compound 23a] |
| < 1 | < 1 |  |  | Cc1ccc(F)cc1-n1c(C(C)Nc2nc(N)nc(N)c2C#N)nc2cccc(Cl)c2c1=O (single isomer, unassigned) [Compound 201a-1] |
| 10 to 50 |  | 1 to 10 |  | Cc1c(F)cc(F)cc1-n1c(C(C)Nc2nc(N)nc(N)c2C#N)nc2cccc(Cl)c2c1=O (single isomer, unassigned) [Compound 200a-2] |
| 1 to 10 |  | 10 to 50 |  | Cc1ccc(C(F)F)cc1-n1c(C(C)Nc2nc(N)nc(N)c2C#N)nc2cccc(Cl)c2c1=O (single isomer, unassigned) [Compound 188a-1] |
| 1 to 10 | 10 to 50 |  |  | CC(Nc1nc(N)nc(N)c1C#N)c1nc2cccc(Cl)c2c(=O)n1-c1cc(Cl)cc(C(F)F)c1 (single isomer, unassigned) [Compound 115a] |
| 1 to 10 | > 50 |  |  | CC(Nc1nc(N)nc(N)c1C#N)c1nc2cccc(Cl)c2c(=O)n1-c1cc(F)cc(C(F)(F)F)c1 (single isomer, unassigned) [Compound 45a] |

More lines, now with the values behind:

| Structure (SMILES) | IC50 (PI3Kδ; [1]) [nM] | EC50 (basophils; Homo sapiens) [nM] | EC50 (basophils) [nM] | IC50 (PI3Kδ) [nM] |
| --- | --- | --- | --- | --- |
| CC(Nc1nc(N)nc(N)c1C#N)c1nc2cccc(C(N)=O)c2c(=O)n1-c1ccccc1 (single isomer, unassigned) [Compound 92a] | 1 to 10 | > 50 |  |  |
| CC(Nc1nc(N)nc(N)c1C#N)c1nc2c(F)ccc(C#N)c2c(=O)n1-c1cc(F)cc(F)c1 (single isomer, unassigned) [Compound 125a] | 10 to 50 | 10 to 50 |  |  |
| CC(Nc1nc(N)nc(N)c1C#N)c1nc2cccc(S(C)(=O)=O)c2c(=O)n1-c1cc(F)cc(F)c1 (single isomer, unassigned) [Compound 96a] | 1 to 10 | 10 to 50 |  |  |
| CC(Nc1nc(N)nc(N)c1C#N)c1nc2cccc(F)c2c(=O)n1-c1ccccc1 (single isomer, unassigned) [Compound 81a] | 1 to 10 | < 1 |  |  |
| CC(Nc1nc(N)nc(N)c1C#N)c1nc2cccc(C(F)F)c2c(=O)n1-c1ccccc1 (single isomer, unassigned) [Compound 62a] | < 1 | < 1 |  |  |
| CC(Nc1nc(N)nc(N)c1C#N)c1nc2c(F)ccc(F)c2c(=O)n1-c1cccc(F)c1 (single isomer, unassigned) [Compound 148a] | 1 to 10 | < 1 |  |  |
| CC(Nc1nc(N)nc(N)c1Cl)c1cc2cccc(Cl)c2c(=O)n1-c1ccccc1 (single isomer, unassigned) [Compound 195a] |  |  | 1 to 10 | < 1 |
| CC(Nc1nc(N)nc(N)c1F)c1nc2cccc(Cl)c2c(=O)n1-c1ccccc1 (single isomer, unassigned) [Compound 194a] | > 50 |  | > 50 |  |
| CC(C)C(Nc1nc(N)nc(N)c1C#N)c1nc2cccc(Cl)c2c(=O)n1-c1cc(F)cc(F)c1 (single isomer, unassigned) [Compound 198a] | 1 to 10 | 1 to 10 |  |  |
| CC(Nc1nc(N)nc(N)c1C#N)c1nc2c(F)ccc(F)c2c(=O)n1-c1ccccc1 (single isomer, unassigned) [Compound 59a] | < 1 | 1 to 10 |  |  |
| CC(Nc1nc(N)nc(N)c1C#N)c1nc2cccc(S(C)(=O)=O)c2c(=O)n1-c1cccc(C(F)F)c1 (single isomer, unassigned) [Compound 116a] | 1 to 10 | > 50 |  |  |
| COc1cccc2nc(C(C)Nc3nc(N)nc(N)c3C#N)n(-c3ccccc3)c(=O)c12 (single isomer, unassigned) [Compound 111a] | 10 to 50 | > 50 |  |  |
| COc1cccc2c(=O)n(-c3ccccc3)c(C(C)Nc3nc(N)nc(N)c3C#N)nc12 (single isomer, unassigned) [Compound 156a] | > 50 | 10 to 50 |  |  |
| CC(C)CC(Nc1nc(N)nc(N)c1C#N)c1nc2cccc(Cl)c2c(=O)n1-c1cccc(C#N)c1 (single isomer, unassigned) [Compound 167a] | 10 to 50 | > 50 |  |  |
| CC(Nc1nc(N)nc(N)c1Cl)c1nc2cccc(S(C)(=O)=O)c2c(=O)n1-c1cccc(F)c1 (single isomer, unassigned) [Compound 153a] | 1 to 10 | 10 to 50 |  |  |
| CC(Nc1nc(N)nc(N)c1C#N)c1nc2cccc(S(C)(=O)=O)c2c(=O)n1-c1cccc(F)c1 (single isomer, unassigned) [Compound 117a] | 1 to 10 | 10 to 50 |  |  |
| CC(Nc1nc(N)nc(N)c1C#N)c1nc2c(F)cc(F)cc2c(=O)n1-c1cc(F)cc(F)c1 (single isomer, unassigned) [Compound 70a] | 10 to 50 | 1 to 10 |  |  |
| CC[C@H](C)[C@H](Nc1nc(N)nc(N)c1C#N)c1nc2cccc(Cl)c2c(=O)n1-c1cc(F)cc(F)c1 [Compound 164a, 2,4-diamino-6-(((1S,2S)-1-(5-chloro-3-(3,5-difluorophenyl)-4-oxo-3,4-dihydroquinazolin-2-yl)-2-methylbutyl)amino)pyrimidine-5-carbonitrile] | 1 to 10 | > 50 |  |  |
| CC(Nc1nc(N)nc(N)c1C#N)c1nc2c(C#N)cc(F)cc2c(=O)n1-c1cc(F)cc(F)c1 (single isomer, unassigned) [Compound 161a] | 10 to 50 | 10 to 50 |  |  |
